Data reported in patent US11192891B2, “Diazaspiro ROCK inhibitors” (BRISTOL-MYERS SQUIBB COMPANY, priority 2017, dated 2021).

Molecular target: ROCK2 (Homo sapiens, UniProt O75116)
Experiment: ROCK kinase inhibition assay, FITC peptide substrate, LABCHIP 3000 readout
Type: biochemical
Conditions: 5 μM ATP, 1.5 μM peptide substrate
Experimental: Compounds were dissolved in DMSO so that the final concentration of DMSO was <2%, and the reaction was initiated with Rho kinase variants. After incubation, the reaction was terminated by the addition of EDTA and the phosphorylated and non-phosphorylated peptides separated using a LABCHIP® 3000 Reader (Caliper Life Sciences). […] Compounds were tested in dose-response format, and the inhibition of kinase activity was calculated at each concentration of compound.

Sequence of ROCK2 (O75116 whole entry, species assumed): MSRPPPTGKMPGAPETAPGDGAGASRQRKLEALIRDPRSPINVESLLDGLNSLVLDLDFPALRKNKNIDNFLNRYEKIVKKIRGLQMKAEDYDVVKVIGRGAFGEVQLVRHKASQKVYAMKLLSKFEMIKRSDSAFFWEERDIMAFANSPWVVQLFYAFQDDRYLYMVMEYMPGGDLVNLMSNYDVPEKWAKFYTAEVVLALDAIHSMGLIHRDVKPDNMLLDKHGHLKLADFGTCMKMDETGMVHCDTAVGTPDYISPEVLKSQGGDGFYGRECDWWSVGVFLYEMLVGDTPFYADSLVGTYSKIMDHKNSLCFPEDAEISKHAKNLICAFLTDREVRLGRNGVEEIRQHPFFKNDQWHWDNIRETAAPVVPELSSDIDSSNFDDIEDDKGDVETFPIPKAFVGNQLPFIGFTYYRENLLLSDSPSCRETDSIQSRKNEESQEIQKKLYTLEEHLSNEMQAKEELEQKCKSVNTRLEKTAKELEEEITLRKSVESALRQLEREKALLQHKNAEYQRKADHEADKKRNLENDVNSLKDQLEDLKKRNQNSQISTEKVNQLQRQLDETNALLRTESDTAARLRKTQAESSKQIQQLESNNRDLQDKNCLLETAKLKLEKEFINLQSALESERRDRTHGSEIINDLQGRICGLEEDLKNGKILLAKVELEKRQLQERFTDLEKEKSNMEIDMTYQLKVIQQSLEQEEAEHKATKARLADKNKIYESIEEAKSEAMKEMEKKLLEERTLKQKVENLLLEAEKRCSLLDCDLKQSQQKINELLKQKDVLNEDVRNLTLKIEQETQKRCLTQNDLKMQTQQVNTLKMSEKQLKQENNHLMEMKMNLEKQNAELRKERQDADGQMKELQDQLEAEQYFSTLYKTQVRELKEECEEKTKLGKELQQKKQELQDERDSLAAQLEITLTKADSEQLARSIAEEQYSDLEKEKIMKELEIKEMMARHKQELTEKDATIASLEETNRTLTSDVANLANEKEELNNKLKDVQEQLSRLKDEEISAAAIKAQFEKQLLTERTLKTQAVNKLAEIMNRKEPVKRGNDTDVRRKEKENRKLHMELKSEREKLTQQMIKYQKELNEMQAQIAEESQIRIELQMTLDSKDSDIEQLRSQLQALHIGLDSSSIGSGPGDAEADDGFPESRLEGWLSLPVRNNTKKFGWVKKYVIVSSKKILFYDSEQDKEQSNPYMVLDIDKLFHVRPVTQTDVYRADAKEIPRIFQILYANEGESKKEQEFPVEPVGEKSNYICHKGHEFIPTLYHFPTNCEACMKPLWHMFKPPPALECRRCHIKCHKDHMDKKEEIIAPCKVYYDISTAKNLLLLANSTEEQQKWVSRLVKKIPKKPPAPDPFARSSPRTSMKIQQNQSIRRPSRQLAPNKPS

SMILES	IC50	EC50
O=C1N(c2ccc(-c3cn[nH]c3)cc2)CCC12CCN(S(=O)(=O)c1ccccc1)CC2 [Example 2, 8-(benzenesulfonyl)-2-[4-(1H-pyrazol-4-yl)phenyl]-2,8-diazaspiro[4.5]decan-1-one]	330 nM	
COc1ccccc1C(=O)N1CCC2(CC1)CCN(c1ccc(-c3cn[nH]c3)cc1)C2=O [Example 3, 8-(2-methoxybenzoyl)-2-[4-(1H-pyrazol-4-yl)phenyl]-2,8-diazaspiro[4.5]decan-1-one]	160 nM	
COc1cccc(C(=O)N2CCC3(CC2)CCN(c2ccc(-c4cn[nH]c4)cc2)C3=O)c1 [Example 5, 8-(3-methoxybenzoyl)-2-[4-(1H-pyrazol-4-yl)phenyl]-2,8-diazaspiro[4.5]decan-1-one]	85 nM	
O=C(C1CC1)N1CCC2(CC1)CCN(c1ccc(-c3cn[nH]c3)cc1)C2=O [Example 7, 8-cyclopropanecarbonyl-2-[4-(1H-pyrazol-4-yl)phenyl]-2,8-diazaspiro[4.5]decan-1-one]	875 nM	
COc1c(F)cccc1C(=O)N1CCC2(CC1)CCN(c1ccc(-c3cn[nH]c3)cc1)C2=O [Example 8, 8-(3-Fluoro-2-methoxybenzoyl)-2-[4-(1H-pyrazol-4-yl)phenyl]-2,8-diazaspiro[4.5]decan-1-one]	112 nM	
O=C(c1ccc(OC(F)(F)F)cc1)N1CCC2(CC1)CCN(c1ccc(-c3cn[nH]c3)cc1)C2=O [Example 10, 2-[4-(1H-pyrazol-4-yl)phenyl]-8-[4-(trifluoromethoxy)benzoyl]-2,8-diazaspiro[4.5]decan-1-one]	95 nM	
COc1ccc(C(=O)N2CCC3(CC2)CCN(c2ccc(-c4cn[nH]c4)cc2)C3=O)cc1F [Example 11, 8-(3-fluoro-4-methoxybenzoyl)-2-[4-(1H-pyrazol-4-yl)phenyl]-2,8-diazaspiro[4.5]decan-1-one]		16 nM
COc1ccccc1C(=O)N1CCC2(CC1)CCN(c1ccc(-c3cn[nH]c3)c(OC)c1)C2=O [Example 12, 2-[3-methoxy-4-(1H-pyrazol-4-yl)phenyl]-8-(2-methoxybenzoyl)-2,8-diazaspiro[4.5]decan-1-one]	54 nM	
COc1cc(N2CCC3(CCN(C(=O)c4ccc(CO)cc4)CC3)C2=O)ccc1-c1cn[nH]c1 [Example 15, 8-[4-(hydroxymethyl)benzoyl]-2-[3-methoxy-4-(1H-pyrazol-4-yl)phenyl]-2,8-diazaspiro[4.5]decan-1-one]	53 nM	
CCc1ccc(C(=O)N2CCC3(CC2)CCN(c2ccc(-c4cn[nH]c4)c(OC)c2)C3=O)cc1 [Example 20, 8-(4-ethylbenzoyl)-2-[3-methoxy-4-(1H-pyrazol-4-yl)phenyl]-2,8-diazaspiro[4.5]decan-1-one]	50 nM	
COc1ccc(C(=O)N2CCC3(CC2)CCN(c2ccc(-c4cn[nH]c4)c(OC)c2)C3=O)cc1Cl [Example 22, 8-(3-chloro-4-methoxybenzoyl)-2-[3-methoxy-4-(1H-pyrazol-4-yl)phenyl]-2,8-diazaspiro[4.5]decan-1-one]	6 nM	
COc1cc(N2CCC3(CCN(C(=O)c4ccc(C(N)=O)cc4)CC3)C2=O)ccc1-c1cn[nH]c1 [Example 23, 4-{2-[3-methoxy-4-(1H-pyrazol-4-yl)phenyl]-1-oxo-2,8-diazaspiro[4.5]decane-8-carbonyl}benzamide]	36 nM	
COC(=O)c1ccc(C(=O)N2CCC3(CC2)CCN(c2ccc(-c4cn[nH]c4)c(OC)c2)C3=O)cc1 [Example 24, methyl 4-{2-[3-methoxy-4-(1H-pyrazol-4-yl)phenyl]-1-oxo-2,8-diazaspiro[4.5]decane-8-carbonyl}benzoate]	23 nM	
COc1cc(N2CCC3(CCN(C(=O)c4ccc(C(=O)O)cc4)CC3)C2=O)ccc1-c1cn[nH]c1 [Example 25, 4-{2-[3-methoxy-4-(1H-pyrazol-4-yl)phenyl]-1-oxo-2,8-diazaspiro[4.5]decane-8-carbonyl}benzoic acid]	1430 nM	

The remaining compounds from weak to strong by IC50, led by results:

IC50	EC50	SMILES
326 nM		O=C(c1ccccc1)N1CCC2(CC1)CCN(c1ccc(-c3cn[nH]c3)cc1)C2=O [Example 1, 8-benzoyl-2-[4-(1H-pyrazol-4-yl)phenyl]-2,8-diazaspiro[4.5]decan-1-one]
241 nM		COc1cc(F)ccc1C(=O)N1CCC2(CC1)CCN(c1ccc(-c3cn[nH]c3)cc1)C2=O [Example 9, 8-(4-fluoro-2-methoxybenzoyl)-2-[4-(1H-pyrazol-4-yl)phenyl]-2,8-diazaspiro[4.5]decan-1-one]
143 nM		Cn1nc(C(=O)N2CCC3(CC2)CCN(c2ccc(-c4cn[nH]c4)cc2)C3=O)c2ccccc21 [Example 6, 8-(1-methyl-1H-indazole-3-carbonyl)-2-[4-(1H-pyrazol-4-yl)phenyl]-2,8-diazaspiro[4.5]decan-1-one]
119 nM		COc1cc(N2CCC3(CCN(C(=O)c4ccc(C(=O)NCC5CC5)cc4)CC3)C2=O)ccc1-c1cn[nH]c1 [Example 26, N-(cyclopropylmethyl)-4-{2-[3-methoxy-4-(1H-pyrazol-4-yl)phenyl]-1-oxo-2,8-diazaspiro[4.5]decane-8-carbonyl}benzamide]
62 nM		COc1cc(N2CCC3(CCN(C(=O)c4ccc(Cl)cc4)CC3)C2=O)ccc1-c1cn[nH]c1 [Example 18, 8-(4-Chlorobenzoyl)-2-[3-methoxy-4-(1H-pyrazol-4-yl)phenyl]-2,8-diazaspiro[4.5]decan-1-one]
21 nM		COc1ccc(C(=O)N2CCC3(CC2)CCN(c2ccc(-c4cn[nH]c4)cc2)C3=O)cc1 [Example 4, 8-(4-methoxybenzoyl)-2-[4-(1H-pyrazol-4-yl)phenyl]-2,8-diazaspiro[4.5]decan-1-one]
16 nM		COc1cc(N2CCC3(CCN(C(=O)c4ccc(N(C)C)cc4)CC3)C2=O)ccc1-c1cn[nH]c1 [Example 21, 8-[4-(dimethylamino)benzoyl]-2-[3-methoxy-4-(1H-pyrazol-4-yl)phenyl]-2,8-diazaspiro[4.5]decan-1-one]
13 nM		COc1ccc(C(=O)N2CCC3(CC2)CCN(c2ccc(-c4cn[nH]c4)c(OC)c2)C3=O)nc1 [Example 16, 2-[3-methoxy-4-(1H-pyrazol-4-yl)phenyl]-8-(5-methoxypyridine-2-carbonyl)-2,8-diazaspiro[4.5]decan-1-one]
10 nM		COc1cc(N2CCC3(CCN(C(=O)c4ccc(C5CC5)cc4)CC3)C2=O)ccc1-c1cn[nH]c1 [Example 19, 8-(4-cyclopropylbenzoyl)-2-[3-methoxy-4-(1H-pyrazol-4-yl)phenyl]-2,8-diazaspiro[4.5]decan-1-one]
8 nM		COc1ccc(C(=O)N2CCC3(CC2)CCN(c2ccc(-c4cn[nH]c4)c(OC)c2)C3=O)cc1 [Example 13, 2-[3-methoxy-4-(1H-pyrazol-4-yl)phenyl]-8-(4-methoxybenzoyl)-2,8-diazaspiro[4.5]decan-1-one]
8 nM		COc1ccc(C(=O)N2CCC3(CC2)CCN(c2ccc(-c4cn[nH]c4)c(OC)c2)C3=O)cc1F [Example 14, 8-(3-fluoro-4-methoxybenzoyl)-2-[3-methoxy-4-(1H-pyrazol-4-yl)phenyl]-2,8-diazaspiro[4.5]decan-1-one]
8 nM		COc1ccc(C(=O)N2CCC3(CC2)CCN(c2ccc(-c4cn[nH]c4)c(OC)c2)C3=O)c(F)c1 [Example 17, 8-(2-Fluoro-4-methoxybenzoyl)-2-[3-methoxy-4-(1H-pyrazol-4-yl)phenyl]-2,8-diazaspiro[4.5]decan-1-one]
